Assay results: patent publication US7772241B2, “Variolin derivatives and their use as antitumor agents” (Pharma Mar S.A., priority 2001, dated 2010)
Like-named read-outs stand apart in the source and are kept apart here.

Key:
A-549 = test: Inhibition of cells growth by colorimetric (SRB) assay, A-549; settings: for GI50 / CC50: Homo sapiens, A549, 48 h
Text: (§1) The finality of these assays is to interrupt the growth of a “in vitro” tumor cell culture by means a continued exhibition of the cells to the sample to be testing.
(§2) This form of the assay employs 96 well cell culture microplates of 9 mm diameter (Faircloth, 1988; Mosmann, 1983). Most of the cell lines are obtained from American Type Culture Collection (ATCC) derived from different human cancer types.
(§3) Cells are maintained in RPMI 1640 10% FBS, supplemented with 0.1 g/l penicillin and 0.1 g/l streptomycin sulphate and then incubated at 37° C., 5% CO2 and 98% humidity. For the experiments, cells were harvested from subconfluent cultures using trypsin and resuspended in fresh medium before plating.
(§4) Cells are seeded in 96 well microtiter plates, at 5×10^3 cells per well in aliquots of 195 μl medium, and they are allowed to attach to the plate surface by growing in drug free medium for 18 hours. Afterward, samples are added in aliquots of 5 μl in a ranging from 10 to 10^−8 μg/ml, dissolved in DMSO/EtOH/PBS (0.5:0.5:99). After 48 hours exposure, the antitumor effect are measured by the SRB methodology: cells are fixed by adding 50 μl of cold 50% (wt/vol) trichloroacetic acid (TCA) and incubating for 60 minutes at 4° C. Plates are washed with deionized water and dried. One hundred μl of SRB solution (0.4% wt/vol in 1% acetic acid) is added to each microtiter well and incubated for 10 minutes at room temperature. Unbound SRB is removed by washing with 1% acetic acid. Plates are air dried and bound stain is solubilized with Tris buffer. Optical densities are read on a automated spectrophotometric plate reader at a single wavelength of 490 nm.
(§5) The values for mean +/−SD of data from triplicate wells are calculated. Some parameters for cellular responses can be calculated: GI=growth inhibition, TGI=total growth inhibition (cytostatic effect) and LC=cell killing (cytotoxic effect).

HT-29 = test: Inhibition of cells growth by colorimetric (SRB) assay, HT-29; settings: for GI50 / CC50: Homo sapiens, HT-29, 48 h
Text: as §1, §2, §3, §4, §5

[1] = read-out: GI50 A-549, SRB assay, 48 hours exposure
[2] = read-out: LC50 A-549, SRB assay, 48 hours exposure
[3] = read-out: GI50 HT-29, SRB assay, 48 hours exposure
[4] = read-out: LC50 HT-29, SRB assay, 48 hours exposure

Compound: COc1ccc(CNc2nccc(-c3c4c(OCc5ccccc5)ccnc4n4c(NCc5ccc(OC)cc5)nccc34)n2)cc1 [Compound 53]
- GI50 (A-549; [1]): 16 µM
- CC50 (A-549; [2]): 16 µM
- TGI A-549 (A-549; SRB assay, 48 hours exposure): 1.60E−05
- GI50 (HT-29; [3]): 16 µM
- CC50 (HT-29; [4]): 16 µM
- TGI HT-29 (HT-29; SRB assay, 48 hours exposure): 1.60E−05

Compound: CSc1nccc(-c2c3cccnc3n3c(SC)nccc23)n1 [Compound 9]
- GI50 (A-549; [1]): 5.9 µM
- CC50 (A-549; [2]): 29.5 µM
- TGI A-549 (A-549; SRB assay, 48 hours exposure): 1.18E−05
- GI50 (HT-29; [3]): 9.16 µM
- CC50 (HT-29; [4]): 25.7 µM
- TGI HT-29 (HT-29; SRB assay, 48 hours exposure): 2.57E−05

Compound: Nc1nccc2c(-c3ccnc(OCc4ccccc4)n3)c3c(OCc4ccccc4)ccnc3n12 [Compound 104]
- GI50 (A-549; [1]): 21.1 µM
- CC50 (A-549; [2]): 21.1 µM
- TGI A-549 (A-549; SRB assay, 48 hours exposure): 2.11E−05
- GI50 (HT-29; [3]): 21.1 µM
- CC50 (HT-29; [4]): 21.1 µM
- TGI HT-29 (HT-29; SRB assay, 48 hours exposure): 2.11E−05

Compound: CCOc1nccc(-c2c3c(OCc4ccccc4)ccnc3n3c(N)nccc23)n1 [Compound 103]
- GI50 (A-549; [1]): 11.5 µM
- CC50 (A-549; [2]): 24.2 µM
- TGI A-549 (A-549; SRB assay, 48 hours exposure): 2.42E−05
- GI50 (HT-29; [3]): 11.9 µM
- CC50 (HT-29; [4]): 24.2 µM
- TGI HT-29 (HT-29; SRB assay, 48 hours exposure): 2.42E−05

Compound: CSc1nccc(-c2c3ccc(C)nc3n3c(SC)nccc23)n1 [Compound 22]
- GI50 (A-549; [1]): 0.85 µM
- CC50 (A-549; [2]): 22.7 µM
- TGI A-549 (A-549; SRB assay, 48 hours exposure): 2.27E−06
- GI50 (HT-29; [3]): 2.83 µM
- CC50 (HT-29; [4]): 19.8 µM
- TGI HT-29 (HT-29; SRB assay, 48 hours exposure): 8.50E−06

Compound: c1ccc(CNc2nccc(-c3c4cccnc4n4c(NCc5ccccc5)nccc34)n2)cc1 [Compound 28]
- GI50 (A-549; [1]): 109 µM
- CC50 (A-549; [2]): 109 µM
- TGI A-549 (A-549; SRB assay, 48 hours exposure): 1.09E−04
- GI50 (HT-29; [3]): 109 µM
- CC50 (HT-29; [4]): 109 µM
- TGI HT-29 (HT-29; SRB assay, 48 hours exposure): 1.09E−04

Compound: COc1ccc2nc3c(cc2c1)c(-c1ccnc(SC)n1)c1ccnc(SC)n13 [Compound 17b]
- GI50 (A-549; [1]): 7.16 µM
- CC50 (A-549; [2]): 19.1 µM
- TGI A-549 (A-549; SRB assay, 48 hours exposure): 1.19E−05
- GI50 (HT-29; [3]): 7.16 µM
- CC50 (HT-29; [4]): 19.1 µM
- TGI HT-29 (HT-29; SRB assay, 48 hours exposure): 1.19E−05

Compound: COc1ccc(COc2nccc(-c3c4cccnc4n4c(N)nccc34)n2)cc1 [Compound 79]
- GI50 (A-549; read-out: A-549 GI50, SRB assay, 48 hours exposure): 25.1 µM
- CC50 (A-549; read-out: A-549 LC50, SRB assay, 48 hours exposure): 25.1 µM
- A-549 TGI (A-549; SRB assay, 48 hours exposure): 2.51E−05
- GI50 (HT-29; read-out: HT-29 GI50, SRB assay, 48 hours exposure): 25.1 µM
- CC50 (HT-29; read-out: HT-29 LC50, SRB assay, 48 hours exposure): 25.1 µM
- HT-29 TGI (HT-29; SRB assay, 48 hours exposure): 2.51E−05
